The values below come from ChEMBL document CHEMBL4371026, “Prodrugs of the cancer cell selective anti-cancer agent (Z)-2-(1H-indol-3-yl)-3-(isoquinolin-5-yl)acrylonitrile (A131) are orally efficacious in a mouse model of resistant colon cancer” (Bioorg Med Chem Lett, 2019).

Data set [1] deals with BJ. As to the kind of experiment: Induction of mitosis in transformed human BJ cells assessed as increase in pH3 Ser10 expression at 5 uM after 24 hrs by Western blot analysis relative to control. Type of data set: functional.
Data set [2] deals with BJ. As to the kind of experiment: Induction of autophagy in transformed human BJ cells assessed as increase in LC3-2 to LC3-1 ratio at 5 uM after 24 hrs by Western blot analysis relative to control. Type of data set: functional.
The nature of data set [3]: Prodrug conversion in pH 7.4 10% FBS assessed as formation of A131 measured at 1 hr by LC-MS/MS analysis relative to parent compound. Type of data set: ADME. The following applies: cattle, pH 7.4, 1 h.
The nature of data set [4]: Half life in simplified simulated gastric fluid. Type of data set: ADME.
Data set [5] is described as follows: Prodrug conversion in pH 7.4 10% FBS assessed as formation of A131 by measuring apparent half life. Type of data set: ADME. The conditions noted are these: cattle.
A short description of data set [6]: Stability in human plasma assessed as compound hydrolysis measured within 15 mins. Type of data set: ADME, cell-free. The conditions noted are these: read-out: Drug degradation.
The nature of data set [7]: Prodrug conversion in mouse plasma assessed as formation of A131 by measuring apparent half life. The data set is classed as ADME, cell-free.
Data set [8] can be described thus: Prodrug conversion in pH 7.4 10% FBS assessed as formation of A131 measured at 3 hrs by LC-MS/MS analysis relative to parent compound. Type of data set: ADME. The following applies: cattle, pH 7.4, 3 h.
The nature of data set [9]: Stability in acidic pH assessed as compound hydrolysis. Type of data set: physicochemical.
Data set [10] is described as follows: Stability in simplified simulated gastric fluid assessed as parent compound remaining at 24 hrs. Type of data set: ADME. The following applies: read-out: Stability.
Data set [11] can be described thus: Stability in simulated gastric fluid TS assessed as parent compound remaining at 24 hrs. The data set is classed as ADME. The following applies: read-out: Stability.
Data set [12] is described as follows: Prodrug conversion in pH 7.4 phosphate buffer saline assessed as formation of A131 by measuring apparent half life. The data set is classed as ADME.
Data set [13] in a line: Half life in simulated gastric fluid TS. The data set is classed as ADME.
Data set [14] can be described thus: Prodrug conversion in pH 7.4 10% FBS assessed as formation of A131 measured at 2 hrs by LC-MS/MS analysis relative to parent compound. The data set is classed as ADME. The following applies: cattle, pH 7.4, 2 h.
The nature of data set [15]: Prodrug conversion in pH 7.4 10% FBS assessed as formation of A131 measured at 6 hrs by LC-MS/MS analysis relative to parent compound. Type of data set: ADME. The conditions noted are these: cattle, pH 7.4, 6 h.
Data set [16] can be described thus: Prodrug conversion in human plasma assessed as formation of A131 by measuring apparent half life. Type of data set: ADME, cell-free.
Data set [17] concerns HCT-15. As to the kind of experiment: Anticancer activity against paclitaxel-resistant human HCT15 cells xenografted in BALB/c athymic mouse assessed as tumor volume at 40 mg/kg, iv administered thrice every 4 days measured on day 7 (reference value: 495 +/- 109 mm3). The data set is classed as functional.
The subject of data set [18] is HCT-15. Briefly: Anticancer activity against paclitaxel-resistant human HCT15 cells xenografted in BALB/c athymic mouse assessed as tumor volume at 40 mg/kg, iv administered thrice every 4 days measured on day 1 (reference value: 110 +/- 11 mm3). Type of data set: functional.
In data set [19] the test system is HCT-15. Briefly: Anticancer activity against paclitaxel-resistant human HCT15 cells xenografted in BALB/c athymic mouse assessed as tumor volume at 40 mg/kg, iv administered thrice every 4 days measured on day 12 (reference value: 779 +/- 144 mm3). The data set is classed as functional.
Data set [20] relates to HCT-15. As to the kind of experiment: Anticancer activity against paclitaxel-resistant human HCT15 cells xenografted in BALB/c athymic mouse assessed as tumor growth inhibition at 40 mg/kg, iv administered thrice every 4 days. Type of data set: functional, organism-based.
The test system of data set [21] is HCT-15. Briefly: Anticancer activity against paclitaxel-resistant human HCT15 cells xenografted in BALB/c athymic mouse assessed as tumor volume at 40 mg/kg, iv administered thrice every 4 days measured on day 5 (reference value: 329 +/- 45 mm3). The data set is classed as functional.
For data set [22], the system named is HCT-15. As to the kind of experiment: Anticancer activity against paclitaxel-resistant human HCT15 cells xenografted in BALB/c athymic mouse assessed as tumor volume at 40 mg/kg, iv administered thrice every 4 days measured on day 3 (reference value: 180 +/- 36 mm3). Type of data set: functional.
Data set [23] deals with HCT-15. As to the kind of experiment: Anticancer activity against paclitaxel-resistant human HCT15 cells xenografted in BALB/c athymic mouse assessed as tumor volume at 40 mg/kg, iv administered thrice every 4 days measured on day 9 (reference value: 546 +/- 87 mm3). Type of data set: functional.
The subject of data set [24] is HCT-15. As to the kind of experiment: Anticancer activity against paclitaxel-resistant human HCT15 cells xenografted in BALB/c athymic mouse assessed as tumor growth inhibition at 20 mg/kg, ip administered twice a day for 12 days. The data set is classed as functional, organism-based.
The subject of data set [25] is HCT-15. As to the kind of experiment: Anticancer activity against paclitaxel-resistant human HCT15 cells xenografted in BALB/c athymic mouse assessed as formation of misaligned chromosomes with multipolar spindles at 40 mg/kg, ip or 80 mg/kg, po administered twice a day for 12 days by immunohistochemical analysis. The data set is classed as functional, organism-based.

Data set [26] relates to HCT-15. As to the kind of experiment: Anticancer activity against paclitaxel-resistant human HCT15 cells xenografted in BALB/c athymic mouse assessed as cell death at 40 mg/kg, ip or 80 mg/kg, po administered twice a day for 12 days by TUNEL staining based assay. The data set is classed as functional, organism-based.
Data set [27] relates to HCT-15. Briefly: Anticancer activity against paclitaxel-resistant human HCT15 cells xenografted in BALB/c athymic mouse assessed as tumor growth inhibition at 40 mg/kg, ip administered twice a day for 12 days. Type of data set: functional, organism-based.
Data set [28] relates to HCT-15. Briefly: Anticancer activity against paclitaxel-resistant human HCT15 cells xenografted in BALB/c athymic mouse assessed as tumor volume at 20 mg/kg, ip administered twice a day for 12 days measured on day 7 (reference value: 495 +/- 109 mm3). Type of data set: functional.
The test system of data set [29] is HCT-15. Briefly: Anticancer activity against paclitaxel-resistant human HCT15 cells xenografted in BALB/c athymic mouse assessed as tumor volume at 20 mg/kg, ip administered twice a day for 12 days measured on day 1 (reference value: 110 +/- 11 mm3). Type of data set: functional.
For data set [30], the system named is HCT-15. Briefly: Anticancer activity against paclitaxel-resistant human HCT15 cells xenografted in BALB/c athymic mouse assessed as tumor volume at 20 mg/kg, ip administered twice a day for 12 days measured on day 9 (reference value: 546 +/- 87 mm3). The data set is classed as functional.
Data set [31] has as its system HCT-15. Briefly: Anticancer activity against paclitaxel-resistant human HCT15 cells xenografted in BALB/c athymic mouse assessed as tumor volume at 20 mg/kg, ip administered twice a day for 12 days measured on day 12 (reference value: 779 +/- 144 mm3). The data set is classed as functional.
In data set [32] the test system is HCT-15. Briefly: Anticancer activity against paclitaxel-resistant human HCT15 cells xenografted in BALB/c athymic mouse assessed as tumor volume at 20 mg/kg, ip administered twice a day for 12 days measured on day 3 (reference value: 180 +/- 36 mm3). The data set is classed as functional.
Data set [33] deals with HCT-15. As to the kind of experiment: Anticancer activity against paclitaxel-resistant human HCT15 cells xenografted in BALB/c athymic mouse assessed as tumor volume at 20 mg/kg, ip administered twice a day for 12 days measured on day 5 (reference value: 329 +/- 45 mm3). The data set is classed as functional.

The source made the active and inactive calls. The calls are words filed in the database; no cut-off is given here. Where only a bound is given, the exact number is not on record here.

Regarding `CC(=O)NCCC(=O)n1cc(/C(C#N)=C/c2cccc3cnccc23)c2ccccc21`, the “fold change (FC)” value came to 2.8 with BJ [1] and 2.3 with BJ [2].

For the compound `N#C/C(=C\c1cccc2cnccc12)c1cn(C(=O)C2CCNCC2)c2ccccc12`, the “fold change (FC)” value in data set [3] turned out to be 7.03; in data set [8] it was 14.48; with BJ [1], 10.1; in data set [14], 13.17; in [15], 16.5; in the data set with BJ [2], 7.3. Further, the half-life in [4] and in [13] was greater than 24 h each time. Moreover, the “t1/2(app)” value stood at 1.14 h in data set [5], 0.208 h in data set [7], 2.58 h in [12] and 4.2 min in [16]. In data set [6], the metabolised at 0.25 h is greater than 90%. Also, the Stability result in data set [9] is recorded as “Stable”. Also, the remaining at 24 h in data set [10] and in [11] was 75% throughout.

For `CN1CCN(C(=O)Cn2cc(/C(C#N)=C/c3cccc4cnccc34)c3ccccc32)CC1`, the results for the “fold change (FC)” value in the data set with BJ [1] and with BJ [2] were 1.3 and 1.9, respectively.

In the case of `CC(=O)O[C@H]1C(=O)[C@@]2(C)[C@H]([C@H](OC(=O)c3ccccc3)[C@]3(O)C[C@H](OC(=O)[C@H](O)[C@@H](NC(=O)c4ccccc4)c4ccccc4)C(C)=C1C3(C)C)[C@]1(OC(C)=O)CO[C@@H]1C[C@@H]2O` [PACLITAXEL], the Activity with HCT-15 [17] is 321 mm3; with HCT-15 [18], 119 mm3; in the data set with HCT-15 [19], 638 mm3; with HCT-15 [21], 288 mm3; with HCT-15 [22] it was 152 mm3; with HCT-15 [23], 409 mm3. Besides, in the data set with HCT-15 [20], the TGI entry is “Active”.

As to `Cn1cc(/C(C#N)=C/c2cccc3cnccc23)c2ccccc21`, the “fold change (FC)” value with BJ [1] is 1.1; in the data set with BJ [2], 1.6.

`N#C/C(=C\c1cccc2cnccc12)c1c[nH]c2ccccc12` [listing 1 of 2 here]: the “fold change (FC)” value is 7.3 with BJ [1] and 5 in the data set with BJ [2].

`CCN(CC)C(=O)n1cc(/C(C#N)=C/c2cccc3cnccc23)c2ccccc21`: the “fold change (FC)” value with BJ [1] turned out to be 0.6; with BJ [2], 0.9.

As for `N#C/C(=C\c1cccc2cnccc12)c1c[nH]c2ccccc12` [listing 2 of 2 here], the TGI entry in the data set with HCT-15 [24] was “Active”.

For `N#C/C(=C\c1cccc2cnccc12)c1cn(C(=O)CCN)c2ccccc12`, the entries for the “fold change (FC)” value in the data set with BJ [1] and in the data set on BJ [2] were 2.1 and 4.1, respectively.

`COCCOCC(=O)n1cc(/C(C#N)=C/c2cccc3cnccc23)c2ccccc21`: the results for the “fold change (FC)” value in the data set with BJ [1] and in the data set with BJ [2] were 12.8 and 4.1, respectively.

Regarding `CN1CCN(CC(=O)n2cc(/C(C#N)=C/c3cccc4cnccc34)c3ccccc32)CC1` [listing 1 of 2 here], the result with HCT-15 [25] and with HCT-15 [26] was Active. The TGI result in the data set on HCT-15 [27] was “Active”.

`CS(=O)(=O)n1cc(/C(C#N)=C/c2cccc3cnccc23)c2ccccc21`: the “fold change (FC)” value with BJ [1] is reported as 0.4; in the data set on BJ [2], 0.8.

Consider `CC(C)(C)OC(=O)NCCC(=O)n1cc(/C(C#N)=C/c2cccc3cnccc23)c2ccccc21`, for which the results for the “fold change (FC)” value with BJ [1] and in the data set on BJ [2] were 4.8 and 3.9, respectively.

In the case of `CN1CCN(CC(=O)n2cc(/C(C#N)=C/c3cccc4cnccc34)c3ccccc32)CC1` [listing 2 of 2 here], the “fold change (FC)” value in [3] was 4.68; in data set [8], 8.39; with BJ [1], 11.8; in data set [14], 7.51; in data set [15], 8.84; with BJ [2], 5. The half-life in data set [4] and in [13] was 24 h each time. Besides, the “t1/2(app)” value in data set [5] turned out to be 0.9 h; in data set [7], 0.088 h; in [12] it was 5.3 h; in data set [16], 3.42 min. Besides, the metabolised at 0.25 h in data set [6] was greater than 90%. The Stability result in [9] was “Stable”. In addition, the remaining at 24 h in data set [10] and in data set [11] was 50% throughout.

Regarding `Cl.N#C/C(=C\c1cccc2cnccc12)c1c[nH]c2ccccc12`, the Activity in the data set with HCT-15 [28] is on record as 204 mm3; in the data set on HCT-15 [29] it was 116 mm3; in the data set with HCT-15 [30], 225 mm3; in the data set on HCT-15 [31], 289 mm3; with HCT-15 [32] it was 125 mm3; with HCT-15 [33], 153 mm3.

On to `CC(C)(C)OC(=O)N1CCC(C(=O)n2cc(/C(C#N)=C/c3cccc4cnccc34)c3ccccc32)CC1`, for which the “fold change (FC)” value is reported as 16.2 in the data set on BJ [1] and 5.2 in the data set on BJ [2].
